Experimental data from patent publication US20240041922A1, “METHODS AND COMPOSITIONS” (Monash University, priority 2020, published 2024).
“Also recorded” adds a separate entry of the source. Read-outs that look alike come from different tables or passages of the source.

Experiments:
C2C12 myoblasts = assay: C2C12 myoblast proliferation (EdU incorporation); type: cell-based, mouse
Protocol: Larvae: Labelling and detection was carried out as previously described (Nguyen, P. D. et al. Muscle stem cells undergo extensive clonal drift during tissue growth via Meox1-mediated induction of G2 cell-cycle arrest. […] Cell culture: Cells were incubated for 1 h in media supplemented with 10 μM EdU. […] Cells were processed using the Click-iTTM EdU Alexa FluroTM 647 imaging Kit (Thermo Fisher) following the manufacturer's protocol. The mouse muscle cell line […]. Serial passaging and differentiation of myogenic cells isolated from dystrophic mouse muscle. Nature 270, 725 (1977) were cultured in growth media (Dulbecco's Modified Eagle Medium (4.5 g/l D-Glucose, No L Glutamine, No Sodium Pyruvate (Gibco))+20% Fetal Bovine Solution-One Shot (Gibco)+1% Glut Max 100x (Gibco)). Cells were maintained at 37° C., 5% CO2. Cells at 70% confluence, passage 8 were extracted from T75 flasks with 0.025% Tryspin EDTA (Gibco), neutralised in growth media, spun at 180×g for 5 min to pellet cells. The cells were then resuspended in 10 ml of fresh growth media. 500 μl of cells were plated on a 8-well on cover glass II (Sarstedt) chamber slide at a density of 1×10^3 cells/ml. Cells were left 4 h at 37° C. to re-attach. For drug treatments, the media were supplemented with appropriate doses and cultured for 6 h.

PAX7+ satellite cells = assay: Primary mouse myoblast mono- and co-cultures, PAX7+ satellite cell proliferation (EdU); type: cell-based; settings: for satellite cell proliferation on supplementation: myoblast monoculture (MB) and MB+3T3 co-culture, 24 h
Protocol: Larvae: Labelling and detection was carried out as previously described (Nguyen, P. D. et al. Muscle stem cells undergo extensive clonal drift during tissue growth via Meox1-mediated induction of G2 cell-cycle arrest. […] Cell culture: Cells were incubated for 1 h in media supplemented with 10 μM EdU. […] Cells were processed using the Click-iTTM EdU Alexa FluroTM 647 imaging Kit (Thermo Fisher) following the manufacturer's protocol. For isolation of primary mouse myoblasts, limb skeletal muscle from E17.5 C57/BL6J mice were minced and digested in 0.125% Trypsin at 37° C. for 20 min. […] Myoblasts were again depleted for fibroblasts prior to co-culturing on gelatin-coated 48 well plates in DMEM+20% FBS+10% L929-conditioned medium. 100,000 myoblasts were plated with either 7,500 MafB/c-Maf deficient (Maf-DKO) macrophages (Aziz, A., Soucie, E., Sarrazin, […]. MafB/c-Maf deficiency enables self-renewal of differentiated functional macrophages. […] For drug treatments, the media were supplemented with appropriate doses and cultured for 24 h.

[1] = test system: wound-resident muscle stem cells; assay: Larval zebrafish needle stab muscle injury, wound site proliferation (EdU); type: in vivo
Protocol: 4dpf larvae were anaesthetized in 0.01% tricaine (MS-222) (Sigma-Aldrich) in Ringer's solution. Mechanical injures were targeted either to the dorsal or ventral myotome above the cloaca when the larvae is oriented dorsal to the top, anterior to the left. Needle-stick injury was carried out as previously described (Gurevich, D. B. el al. Asymmetric division of clonal muscle stem cells co-ordinate muscle regeneration in vivo. Science 353 6295 aad9969 (2016)). Briefly, the myotome was subjected to a single 30-gauge needle puncture that generates an extensive injury with many damaged muscle fibres. For laser-induced injury, anaesthetised larvae were mounted in a thin layer of 1% low-melt agarose in Ringer's solution. Injuries were carried out using a UV-nitrogen laser pulsed through a coumarin 440 nm dye cell coupled to a Zeiss Axioplan microscope (MicroPoint Laser System, Andor Technology). On average a laser injury required pulses for 5-10 sec from laser beams focused through a 40× water immersion objective. For time-lapse analysis of the immediate response to injury, muscle fibre ablations were achieved using a SIM scanner (Olympus) at 790 nm and 200 msec dwell time at 100% laser power on an Olympus FVMPE-RS upright multi-photon microscope equipped with a 25×/1.05 water immersion objective. Injury-responding macrophages were tracked using the manual tracking plugin in Fiji.
Cell ablation was carried out as previously described (Pisharath, H. & Parsons, M. J. in Zebrafish 133-143 (Springer, 2009)) with minor modifications. Larvae at the appropriate stage were incubated in 5-10 mM metronidazole (Mtz) (Sigma-Aldrich) in Ringer's solution and daily refreshed until experimental end point. Drug treatments were carried out by incubating 4 dpf needle stick injured larvae in 5 and 10 μM cenicriviroc (CVC) (Med Chem Express) and 5 and 10 μM maraviroc (MVC) (Med Chem Express) in Ringer's solution immediately post injury and refreshed daily.
The effect of drug treatment on laser ablation muscle injury was assayed by treating larvae with 5 μM CVC for 2 h prior to injury and with larvae being maintained in the drug until experimental end point. […] Chemokine supplementation experiments were carried out in plasticware coated with 0.1% bovine serum albumin (BSA) overnight (rinsed in Ringer's solution prior to use) to minimise protein adsorption. Larvae were treated with 57 nM recombinant human visfatin (hrNAMPT(1)) (PeproTech), 57 nM recombinant murine CCL8/MCP-2 (mrCCL8) (PeproTech) and combinations with Mtz and CVC.
Larvae: Labelling and detection was carried out as previously described (Nguyen, P. D. et al. Muscle stem cells undergo extensive clonal drift during tissue growth via Meox1-mediated induction of G2 cell-cycle arrest. Cell Stem Cell 21, 107-119. e106 (2017))^55 with minor alteration. 6 dpf/2 dpi larvae were pulsed with 2.5 nM EdU (Thermo Fisher) for 1h and chased for a further 1.5 h prior to fixation. Cell culture: Cells were incubated for 1 h in media supplemented with 10 μM EdU. Following Edu pulse, C2C12 cells were fixed immediately, while primary mouse myoblast co-cultures were rinsed in PBS, replaced with media and incubated for a further 2 h following which the cells were fixed. Cells were processed using the Click-iT™ EdU Alexa Fluro™ 647 imaging Kit (Thermo Fisher) following the manufacturer's protocol.

rectus femoris muscle = settings: for muscle architecture / regenerated muscle area: delivered in fibrin hydrogel, 10 days post treatment
Protocol: Injury: male C57BL/6J mice aged between 10-12 weeks were anesthetised and shaved on the hind left leg. A unilateral incision measuring approximately 1 cm was made exposing the underlying fascia. The left hind limb was extended and exteriorised via the incision site by retracting the surrounding tissue. A 3×4 mm full thickness segment of the rectus femoris muscle was removed. Directly after, the injury site was filled with fibrin hydrogel with or without 200 ng or 500 ng of hrNAMPT(1) (hydrogel components; 40 μl, 8 mg/ml human fibrinogen (FIB3, Enzyme Research Laboratories), 4 U/ml bovine thrombin (T4648, Sigma), 5 mM CaCl2, 17 μg/ml of aprotinin (ab146286, Abcam)) which polymerized in the defect. Then, the soft tissue was closed with stitches.
Histology: 10 days after treatment, animals were sacrificed and the wounds were harvested for histological analysis. The defect site and associated proximal and distal segment of the quadriceps muscle (including the rectus femoris, vastus medialis and vastus lateralis) were excised and embedded. Histological analysis was performed on serial paraffin sections (4 μm sections collected passing the central portion of the wound). Multiple sections were stained with Masson's Trichrome (to detect collagen deposition) and the extent of fibrosis (represented by a blue stain) was measured by histomorphometric analysis using ImageJ software (version 1.51h, National Institutes of Health, USA). To maintain uniformity between samples, the length of the vastus medialis taken at multiple depths ranging from 1.0 mm-3.0 mm serves as a reference between tissue sections to determine the depth of sectioning. For fibrotic quantification, average muscle fibrosis area at each depth was scored and normalised with the area of the rectus femoris. Total area of muscle is determined by calculating the average area of rectus femoris at each depth.
Immune cell profiling and PAX7^+ cell quantification with flow cytometry: 4, 6 or 8 days after treatment with either 0.5 μg of hrNAMPT(1) delivered by fibrin hydrogel or control fibrin hydrogel only, mice were euthanised via CO2 asphyxiation. The defect site and associated proximal and distal segment of the quadricep muscles were isolated and placed into 890 μl of complete RPMI (with 10% FBS and 2 mM Glutamax, Life Technologies). The tissue was minced with surgical scissors and 100 μl of 10 mg/ml Collagenase II (Sigma-Aldrich) and 10 μl of 10 mg/ml DNAse I (Biolabs), while 100 μl of dispase II (10 mg/ml) was added into the digestion for PAX7 acquisition. The mixture was vortexed and incubated at 37° C. for 45 min. The collagenase was then inactivated with 500 μl ice-cold PBS, 5% FBS, 5 mM EDTA. The mixture was strained subsequently through 70 μm and 40 μm filters. The cell suspension was further diluted with 1 ml complete RPMI and centrifuged for 10 min at 300× g. The supernatant was discarded and the pellet was resuspended in 250 μl complete RPMI and aliquoted into wells of a 96-well U bottom plate for antibody staining. The cell solutions were centrifuged, supernatant discarded, and washed with PBS. The cell viability stain used was 100 μl of Zombie Aqua (Biolegend) Live-Dead dye diluted in PBS (1:400 dilution) and incubated for 30 min at 4° C. The cells were then blocked with FcX (anti-CD16/32 antibodies, Biolegend, 1 μg/ml) flow cytometry buffer (PBS, 5% FBS). The cells were kept for 20 min at 4° C., washed with flow cytometry buffer and centrifuged. […]

[2] = single dose 0.5 μg in fibrin hydrogel, vs fibrin only

In the case of `O=C(NCC(=O)N1CC[C@H](N[C@H]2CC[C@@](O)(c3ccc(-c4ncccn4)cn3)CC2)C1)c1cccc(C(F)(F)F)c1` [PF-4136309, reference compound], the “effect on NAMPT-induced myoblast proliferation” value (C2C12 myoblasts; co-administration with NAMPT, 6 h) is reported as “does not hinder NAMPT's stimulatory effect on myoblast proliferation”, the “effect on macrophage-stimulated satellite cell proliferation” value (PAX7+ satellite cells; MB+macrophage co-culture, 100 nM inhibitor) is reported as “had no negative effect” and the “effect on NAMPT-stimulated satellite cell proliferation” value (PAX7+ satellite cells; with hrNAMPT, 100 nM inhibitor) is reported as “maintained”.

In the case of “Nicotinamide phosphoribosyltransferase [NAMPT]”, the “satellite cell proliferation on supplementation in presence of macrophages” value (PAX7+ satellite cells; MB+macrophage co-culture) is reported as “did not increase satellite cell proliferation in the presence of macrophages”, the “satellite cell proliferation on supplementation” value (PAX7+ satellite cells) is reported as “enhanced proliferation; also recorded: stimulates proliferation of PAX7^+ satellite cells” and the “satellite cell proliferation on supplementation” value (PAX7+ satellite cells; listed as hrNAMPT) is reported as “able to increase the proliferation of satellite cells in MB and MB+3T3 culture conditions”. For the same compound, the “wound site proliferation in macrophage-ablated larvae” value ([1]; 5 mM Mtz added at 4 dpf/0 dpi) was “rescues the proliferation deficit generated by ablating macrophages; also recorded: rescues the proliferative deficit that occurs upon macrophage ablation; also recorded: functioned to rescue wound site proliferation in macrophage-ablated larvae”, the “wound site proliferation, NAMPT together with CVC” value ([1]; Ccr5 inhibited by CVC) was “failed to rescue the proliferation defect; also recorded: resistant to NAMPT mediated rescue; also recorded: failed to rescue the proliferation deficit when supplemented in conjunction with CVC” and the “increase in wound site proliferation above control response in macrophage-ablated larvae” value ([1]; macrophages ablated with Mtz) was 10.96±3.55%. The “wound site muscle stem cell proliferation” value ([1]; needle stab injury, agent alone) was “specifically enhanced wound-resident muscle stem cell proliferation; also recorded: increases wound site proliferation in control settings”, the “increase in muscle stem cell proliferation within the wound site vs control” value ([1]; needle stab injury, supplementation) was 30.70±4.26% and the “centrally nucleated muscle fibres” value (rectus femoris muscle; 6 days post treatment) was “significant increase the number of centrally nucleated de novo muscle fibres”. The “muscle architecture / regenerated muscle area” value (rectus femoris muscle) was “significantly increased the regenerated muscle area”, the “muscle architecture / regenerated muscle area” value (rectus femoris muscle; listed as hrNAMPT) was “able to fully restore muscle architecture” and the “decrease in average fibrotic area” value (rectus femoris muscle; [2]) was 34.76±9.32%. The “increase in average muscle area” value (rectus femoris muscle; [2]) was 3.276±0.4926 mm^2.

“mrCCL2: recombinant murine CCL2/MCP-1 (PeproTech), CCR2-specific ligand” was tested, and the “myoblast proliferation, factor added alone” value (C2C12 myoblasts; 6 h in growth media) was “failed to increase proliferative rates beyond that of the control”.
